Data: patent US8309353B2, “Method for induction of differentiation of ES cell” (Kumamoto University, priority 2007, dated 2012)

B1: OsM: recombinant human oncostatin M (Sigma) (protein, UniProt P13725 26-221, looked up)
Oncostatin-M: AAIGSCSKEYRVLLGQLQKQTDLMQDTSRLLDPYIRIQGLDVPKLREHCRERPGAFPSEETLRGLGRRGFLQTLNATLGCVLHRLADLEQRLPKAQDLERSGLNIEDLEKLQMARPNILGLRNNIYCMAQLLDNSDTAEPTKAGRGASQPPTPTPASDAFQRKLEGCRFLHGYHRFMHSVGRVFSKWGESPNRSRR

Experiments:
mouse ES cells (SK7) = assay: Immunohistochemical analysis of AFP-, Pdx1/GFP- and Alb-expressing cells in mouse ES cells differentiated on M15 cells; type: cell-based; conditions: for number of AFP-positive cells: factor added after d4, 10% KSR, 2,000 mg/L glucose (FIG. 3); for AFP expression, one factor added: one factor added d4 to d8, KSR, glucose 2,000 mg/L (FIG. 2B)
Protocol: A previously reported SK7 cell line (mouse ES cells) having a Pdx1 promoter-derived GFP reporter-introduced gene was used (International Publication WO2006/126574). The SK7 ES cells were maintained on mouse embryonic fibroblasts (MEF), using a Glasgow minimum essential medium (Invitrogen) supplemented with 1,000 units/mL leukemia inhibitory factor (Chemicon), 15% KSR (knockout serum replacement; Gibco), 1% fetal bovine serum (FBS; Hyclone), 100 μM nonessential amino acid (Invitrogen), 2 mM L-glutamine (Invitrogen), 1 mM sodium pyruvate (Invitrogen), 50 units/mL penicillin, 50 μg/mL streptomycin (Invitrogen) and 100 μM β-mercaptoethanol.
Thereafter, the ES cells (the number of cells: 5,000 and 20,000, respectively) were inoculated on a 24-well or 6-well plate (Nunc) that had previously been coated with the M15 cells. Subsequently, using DMEM containing 100 μM nonessential amino acid, 2 mM L-glutamine, 50 units/mL penicillin, 50 μg/mL streptomycin and 100 μM β-mercaptoethanol, the cells were cultured in a differentiation culture solution containing 10% FBS and 4,500 mg/L glucose from the initial day of culture (d0) to day 4 (d4), and after d4, the cells were then cultured in another culture solution containing 10% KSR and 2,000 mg/L glucose. Thus, the cells were cultured for a maximum of 30 days. In order to induce the […] endoderm, activin A (20 ng/mL) and bFGF (50 ng/mL) were added during the period from d0 to d4. Moreover, HGF (10 ng/mL) and dexamethasone (1 μM) were added during the period from d4 to d30. The culture solution was replaced with a fresh one containing a growth factor every two days. The details of such growth factor will be described at the end of the diferentiation section.
Recombinant human activin A (R&D Systems): 20 ng/mL; recombinant human bFGF (Peprotech): 50 ng/mL; recombinant human BMP4 (R&D Systems): 50 ng/mL; SU5402 (Mohammadi, et al., (1997). Science 276, 955-60.) (Calbiochem): 10 μM; recombinant mouse Noggin/Fc Chimera (R&D Systems): 100 ng/mL; recombinant human hepatic cell growth factor (HGF, Peprotech): 10 ng/mL; dexamethasone (Dex, Sigma): 1 μM; recombinant human oncostatin M (OSM, Sigma): 10 ng/mL.
For whole mount immunocytochemical analysis, ES cells were inoculated on 24-well Thennanox coverslips (Nunc). Using TCS-SP2 Spectral Confocal Scanning System (Leica), a confocal image was obtained. Using IX 71 Inverted (Olympus), a phase-contrast image was obtained. The following antibodies were used in detection: mouse anti-GFP (Roche), rabbit anti-α-fetoprotein (AFP, Biomeda), goat anti-albumin (Sigma), fluorescein isothiocyanate (FITC)-labeled Dolichos biflorus agglutinin (DBA) lectin (Sigma), rabbit anti-α-1-anti-trypsin (Sigma), rabbit anti-CYP3A2 (Biomol), rabbit anti-CYP7A1 (Santa Cruz), and mouse anti-Oct3/4 (Santa Cruz). As secondary antibodies, an Alexa568-labeled goat anti-rabbit antibody, donkey anti-goat antibody (Molecular Probes), and an Alexa488-labeled goat anti-mouse antibody, goat anti-rabbit antibody, and donkey anti-goat antibody (Molecular Probes) were used. The cells were subjected to counterstaining using DAPI (Roche). In order to quantify the number of the Afp-expressing cells of FIG. 3B, the region of an Afp-positive stained image was analyzed using Lumina Vision program (Mitani Corporation).

[1] = tested on: mouse ES cell-derived hepatic cells; assay: Albumin secretion analysis by ELISA; type: cell-based
Protocol: The medium was replaced with a fresh one, and 24 hours later, the conditioned medium was recovered. Using Lebis ELISA kit (Shibayagi), albumin secretion was analyzed.
It has been reported that OsM induces maturation of mouse fetal liver cells (Kamiya, A., Kinoshita, T. & Miyajima, A. (2001) Oncostatin M and hepatocyte growth factor induce hepatic maturation via distinct signaling pathways. FEBS Lett 492, 90-94). Thus, the influence of OsM on albumin secretion was analyzed by ELISA. The effect of OsM to enhance albumin secretion was not observed until […].

| Molecule | number of AFP-positive cells (mouse ES cells (SK7)) | AFP expression, one factor added (mouse ES cells (SK7)) | further results |
| --- | --- | --- | --- |
| Cc1c[nH]c(/C=C2\C(=O)Nc3ccccc32)c1CCC(=O)O [SU5402, reference compound] | decreased | – | – |
| HGF: recombinant human hepatic cell growth factor (Peprotech) | – | promoted in the order of Dex>HGF>OsM | – |
| Noggin | almost all AFP-expressing cells disappeared | – | – |
| bFGF: recombinant human bFGF (Peprotech) | increased | – | AFP-expressing cells when bFGF was added to Noggin (mouse ES cells (SK7); in the presence of Noggin, after d4, 10% KSR, 2,000 mg/L glucose (FIG. 3)): recovered |
| B1 | – | promoted in the order of Dex>HGF>OsM | increase of albumin secretion ([1]; d50 and d60, medium with OsM, Dex and HGF versus control medium with only Dex and HGF, 24 hours): 2 times; effect to enhance albumin secretion ([1]; until c40, OsM added to Dex and HGF): not observed |
